Reference: ChEMBL document CHEMBL1135073, “Solution and solid-phase synthesis of potent inhibitors of hepatitis C virus NS3 proteinase” (Bioorg Med Chem Lett, 2002)
pIC50: −log10 of the molar value. *1 amine or outer side, *2 acyl side, *3 side chain or, on linkers, in order; H or OH if unused. Where a SMILES comes first, the peptide text is derived from it. [ ]: non-standard residue; d: D form. The star is where a group is joined. Nleψ(COCO) = CCCC[C@H](N[*:1])C(=O)C(=O)[*:2]; Acetyl(2-naphthyl) = O=C(Cc1ccc2ccccc2c1)*; NH(1S-phenylpropyl) = CC[C@H](N*)c1ccccc1; Phe(2-Me) = Cc1ccccc1C[C@H](N)C(=O)O; NleCONH2 = CCCC[C@H](N*)C(=O)C(N)=O; 3Thi = N[C@@H](Cc1ccsc1)C(=O)O; Phg = N[C@H](C(=O)O)c1ccccc1; Suc = O=C(CCC(=O)[*:2])[*:1]; Tle = CC(C)(C)[C@H](N)C(=O)O; Bn = c1ccc(C*)cc1

Molecular target: NS3 (Hepatitis C virus, UniProt A3EZJ3)
Sequence (A3EZJ3 whole entry): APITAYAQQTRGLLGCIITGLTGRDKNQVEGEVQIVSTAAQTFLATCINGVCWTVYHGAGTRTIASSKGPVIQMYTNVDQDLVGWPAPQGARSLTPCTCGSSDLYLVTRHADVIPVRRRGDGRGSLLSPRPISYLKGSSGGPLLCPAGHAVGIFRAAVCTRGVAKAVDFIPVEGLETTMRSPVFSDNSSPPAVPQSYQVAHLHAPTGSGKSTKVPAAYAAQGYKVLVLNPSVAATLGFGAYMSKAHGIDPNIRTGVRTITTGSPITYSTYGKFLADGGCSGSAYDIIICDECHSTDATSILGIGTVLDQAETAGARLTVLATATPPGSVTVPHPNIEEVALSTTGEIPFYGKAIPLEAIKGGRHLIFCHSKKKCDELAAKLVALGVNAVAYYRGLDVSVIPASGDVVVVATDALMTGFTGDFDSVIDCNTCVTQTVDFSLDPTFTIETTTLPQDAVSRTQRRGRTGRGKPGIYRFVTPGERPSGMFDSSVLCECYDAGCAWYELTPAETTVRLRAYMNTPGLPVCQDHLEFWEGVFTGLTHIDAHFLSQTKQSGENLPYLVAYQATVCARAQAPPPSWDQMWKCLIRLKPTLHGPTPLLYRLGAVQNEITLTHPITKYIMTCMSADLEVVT
Test: Inhibitory concentration against Hepatitis C virus NS3 proteinase
Parameters: species or system Hepacivirus hominis

Row | SMILES | pIC50
1 | CCCC[C@H](NC(=O)[C@H](CC(C)C)NC(=O)[C@@H](NC(=O)[C@H](Cc1ccccc1C)NC(=O)[C@H](CCC(=O)O)NC(=O)[C@H](CC(=O)O)NC(=O)CCC(=O)O)c1ccccc1)C(=O)C(N)=O (Suc-DE[Phe(2-Me)][Phg]L-NleCONH2) | 7.38
2 | CCCC[C@H](NC(=O)[C@H](CC(C)C)NC(=O)[C@@H](NC(=O)[C@H](Cc1ccccc1C)NC(=O)[C@@H](NC(=O)[C@H](CC(=O)O)NC(=O)CCC(=O)O)C(C)C)C(C)(C)C)C(=O)C(N)=O (Suc-DV[Phe(2-Me)][Tle]L-NleCONH2) | 7.70
3 | CCCC[C@H](NC(=O)[C@H](CC(C)C)NC(=O)[C@@H](NC(=O)[C@H](Cc1ccccc1C)NC(=O)[C@H](CCC(=O)O)NC(=O)[C@H](CC(=O)O)NC(=O)CCC(=O)O)C(C)(C)C)C(=O)C(=O)N[C@@H](CC)c1ccccc1 (Suc-DE[Phe(2-Me)][Tle]L[Nleψ(COCO)]-{NH(1S-phenylpropyl)}) | 7.96
4 | CCCC[C@H](NC(=O)[C@H](CC(C)C)NC(=O)[C@@H](NC(=O)[C@H](Cc1ccc(OCc2ccccc2)cc1)NC(=O)[C@H](CCC(=O)O)NC(=O)[C@H](CC(=O)O)NC(=O)CCC(=O)O)C(C)(C)C)C(=O)C(N)=O (Suc-DEY(Bn)[Tle]L-NleCONH2) | 6.96
5 | CCCC[C@H](NC(=O)[C@H](Cc1ccsc1)NC(=O)[C@@H](NC(=O)[C@H](Cc1ccccc1C)NC(=O)[C@H](CCC(=O)O)NC(=O)[C@H](CC(=O)O)NC(=O)CCC(=O)O)C(C)(C)C)C(=O)C(N)=O (Suc-DE[Phe(2-Me)][Tle][3Thi]-NleCONH2) | 6.89

Continued, values first:

Row | pIC50 | SMILES
6 | 7.39 | CCCC[C@H](NC(=O)[C@H](CC(C)C)NC(=O)[C@@H](NC(=O)[C@H](Cc1ccccc1C)NC(=O)[C@H](CCC(=O)O)NC(=O)[C@H](Cc1c[nH]c2ccccc12)NC(=O)CCC(=O)O)C(C)(C)C)C(=O)C(N)=O (Suc-WE[Phe(2-Me)][Tle]L-NleCONH2)
7 | 7.05 | CCCC[C@H](NC(=O)[C@H](CC(C)C)NC(=O)[C@@H](NC(=O)[C@H](Cc1ccccc1C)NC(=O)[C@H](CCC(=O)O)NC(=O)[C@H](CC(=O)O)NC(=O)Cc1ccc2ccccc2c1)C(C)(C)C)C(=O)C(N)=O ({Acetyl(2-naphthyl)}-DE[Phe(2-Me)][Tle]L-NleCONH2)
8 | 7.54 | CCCC[C@H](NC(=O)[C@H](CC(C)C)NC(=O)[C@@H](NC(=O)[C@H](Cc1ccccc1C)NC(=O)[C@H](COCc1ccccc1)NC(=O)[C@H](CC(=O)O)NC(=O)CCC(=O)O)C(C)(C)C)C(=O)C(N)=O (Suc-DS(Bn)[Phe(2-Me)][Tle]L-NleCONH2)
